Bridge positions count the residues as written; N and C are the ends. Peptide text beside a SMILES is read from it.
Assays:
[1] = tested on: serum calcium concentration
Experimental: Biological Assay of Calcitonin Analogs in Vivo
Rats were divided into four groups of seven animals, and each group was assigned at random to a dose of standard or test solution. Low and high doses were chosen from the linear portion of the dose-response curve. For the salmon calcitonin standard, the values were 0.7 and 2.1 mcg. peptide/100 g. body weight (BW). This dose approximates 3 and 9 MU/100 g. […] Peptides were given by subcutaneous injection (0.2 ml/100 g. BW) and blood was withdrawn 1 hour later for serum calcium determination. Sera are processed and analyzed within two hours of collection.

[2] = literature values; cited from earlier work

Compound	hypocalcemic potency [2]	also measured
CC(C)C[C@H](NC(=O)[C@H](CCCCN)NC(=O)CNC(=O)[C@H](CC(C)C)NC(=O)[C@@H](NC(=O)[C@@H]1CSSC[C@H](N)C(=O)N[C@@H](CO)C(=O)N[C@@H](CC(N)=O)C(=O)N[C@@H](CC(C)C)C(=O)N[C@@H](CO)C(=O)N[C@@H]([C@@H](C)O)C(=O)N1)C(C)C)C(=O)N[C@@H](CO)C(=O)N[C@@H](CCC(N)=O)C(=O)N[C@@H](CCC(=O)O)C(=O)N[C@@H](CC(C)C)C(=O)N[C@@H](Cc1c[nH]cn1)C(=O)N[C@@H](CCCCN)C(=O)N[C@@H](C)C(=O)N[C@@H](CCC(N)=O)C(=O)N[C@H](C(=O)N[C@@H](Cc1ccc(O)cc1)C(=O)N1CCC[C@H]1C(=O)N[C@@H](CCCNC(=N)N)C(=O)N[C@H](C(=O)N[C@@H](CC(N)=O)C(=O)N[C@H](C(=O)NCC(=O)N[C@@H](CO)C(=O)NCC(=O)N[C@H](C(=O)N1CCC[C@H]1C(N)=O)[C@@H](C)O)[C@@H](C)O)[C@@H](C)O)[C@@H](C)O [[Ala^19]SCT, [19-Alanine] salmon calcitonin] (H-CSNLSTCVLGKLSQELHKAQTYPRTNTGSGTP-NH2; disulfide 1-7)	–	biological potency ([1]; rat, in vivo, sc): 5400 IU/mg
CC(C)C[C@H](NC(=O)[C@H](CCCCN)NC(=O)CNC(=O)[C@H](CC(C)C)NC(=O)[C@@H](NC(=O)[C@@H]1CSSC[C@H](N)C(=O)N[C@@H](CO)C(=O)N[C@@H](CC(N)=O)C(=O)N[C@@H](CC(C)C)C(=O)N[C@@H](CO)C(=O)N[C@@H]([C@@H](C)O)C(=O)N1)C(C)C)C(=O)N[C@@H](CO)C(=O)N[C@@H](CCC(N)=O)C(=O)N[C@@H](CCC(=O)O)C(=O)N[C@@H](CC(C)C)C(=O)N[C@@H](Cc1c[nH]cn1)C(=O)N[C@@H](CCCCN)C(=O)N[C@@H](CC(C)C)C(=O)N[C@@H](CCC(N)=O)C(=O)N[C@H](C(=O)N[C@@H](Cc1ccc(O)cc1)C(=O)N1CCC[C@H]1C(=O)N[C@@H](CCCNC(=N)N)C(=O)N[C@H](C(=O)N[C@@H](CC(N)=O)C(=O)N[C@H](C(=O)NCC(=O)N[C@@H](CO)C(=O)NCC(=O)N[C@H](C(=O)N1CCC[C@H]1C(N)=O)[C@@H](C)O)[C@@H](C)O)[C@@H](C)O)[C@@H](C)O [standard salmon calcitonin, Salmon calcitonin]	–	biological potency of the standard, independently determined ([1]; standard used in the assay, independently determined): greater than 4,000 IU/mg
(1,7-alpha-L-amino-suberic acid) eel calcitonin	about 3400 IU/mg	–
eel calcitonin [synthetic eel calcitonin]	around 4300 IU/mg	–
